Active and inactive are the calls of the source. The rule behind the calls is not given here.
How the values were obtained:
[1] = (§1) Cytotoxicity against human HCT15 cells at 10 uM after 48 hrs by SRB assay; type: functional; conditions: HCT-15, 48 h, read-out: GI
[2] = Cytotoxicity against human SF295 cells at 10 uM after 48 hrs by SRB assay; type: functional; conditions: SF-295, 48 h, read-out: GI
[3] = Cytotoxicity against human RPMI8226 cells after 48 hrs by SRB assay; type: functional; conditions: RPMI-8226, 48 h, read-out: LC50 (the source's name)
HL-60(TB) = assay: Cytotoxicity against human HL-60(TB) cells at 10 uM after 48 hrs by SRB assay; type: functional
[4] = Cytotoxicity against human UO31 cells at 10 uM after 48 hrs by SRB assay; type: functional; conditions: UO-31, 48 h, read-out: GI
CCRF-CEM [5] = assay: Cytotoxicity against human CCRF-CEM cells at 10 uM after 48 hrs by SRB assay; type: functional
[6] = Cytotoxicity against human TK10 cells at 10 uM after 48 hrs by SRB assay; type: functional; conditions: TK-10, 48 h, read-out: GI
[7] = Cytotoxicity against human HOP62 cells at 10 uM after 48 hrs by SRB assay; type: functional; conditions: HOP-62, 48 h, read-out: GI
Calf thymus DNA = assay: Binding affinity to calf thymus DNA by UV-vis spectrometric analysis; type: nucleic-acid assay; conditions: Bos taurus
A549 = assay: Cytotoxicity against human A549 cells at 10 uM after 48 hrs by SRB assay; type: functional; conditions: A549, 48 h, read-out: GI
[8] = (§2) Cytotoxicity against human HCC2998 cells at 10 uM after 48 hrs by SRB assay; type: functional; conditions: HCC 2998, 48 h, read-out: GI
MOLT-4 = assay: Cytotoxicity against human MOLT4 cells at 10 uM after 48 hrs by SRB assay; type: functional
RPMI-8226 = assay: (§3) Cytotoxicity against human RPMI8226 cells at 10 uM after 48 hrs by SRB assay; type: functional
[9] = Cytotoxicity against human LOXIMVI cells at 10 uM after 48 hrs by SRB assay; type: functional; conditions: LOX IMVI, read-out: GI
[10] = Cytotoxicity against human SKOV3 cells at 10 uM after 48 hrs by SRB assay; type: functional; conditions: SK-OV-3, 48 h, read-out: GI
SK-MEL-28 = assay: Cytotoxicity against human SK-MEL-28 cells at 10 uM after 48 hrs by SRB assay; type: functional; conditions: SK-MEL-28, 48 h, read-out: GI
[11] = Cytotoxicity against human COLO205 cells after 48 hrs by SRB assay; type: functional; conditions: COLO 205, 48 h, pooled result: one value given for 7 cell lines, strains, targets or settings
[12] = Cytotoxicity against human DU145 cells at 10 uM after 48 hrs by SRB assay; type: functional; conditions: DU-145, 48 h, read-out: GI
[13] = (§4) Cytotoxicity against human OVCAR4 cells at 10 uM after 48 hrs by SRB assay; type: functional; conditions: OVCAR-4, 48 h, read-out: GI
[14] = Cytotoxicity against human DU145 cells after 48 hrs by SRB assay; type: functional; conditions: DU-145, 48 h, read-out: LC50 (the source's name)
M14 = assay: Cytotoxicity against human M14 cells at 10 uM after 48 hrs by SRB assay; type: functional; conditions: M14, 48 h, read-out: GI
[15] = Cytotoxicity against human UACC257 cells at 10 uM after 48 hrs by SRB assay; type: functional; conditions: UACC-257, 48 h, read-out: GI
SN12C = assay: Cytotoxicity against human SN12C cells at 10 uM after 48 hrs by SRB assay; type: functional; conditions: read-out: GI
U-251 = assay: Cytotoxicity against human U251 cells at 10 uM after 48 hrs by SRB assay; type: functional; conditions: U-251, 48 h, read-out: GI
[16] = Cytotoxicity against human SNB19 cells at 10 uM after 48 hrs by SRB assay; type: functional; conditions: SNB-19, 48 h, read-out: GI
NCI-H226 = assay: Cytotoxicity against human NCI-H226 cells at 10 uM after 48 hrs by SRB assay; type: functional; conditions: NCI-H226, 48 h, read-out: GI
[17] = Cytotoxicity against human OVCAR3 cells at 10 uM after 48 hrs by SRB assay; type: functional; conditions: OVCAR-3, 48 h, read-out: GI
786-0 = assay: Cytotoxicity against human 786-0 cells after 48 hrs by SRB assay; type: functional; conditions: 786-0, 48 h, pooled result: one value given for 8 cell lines, strains, targets or settings
[18] = Cytotoxicity against human IGROV1 cells after 48 hrs by SRB assay; type: functional; conditions: IGROV-1, 48 h, pooled result: one value given for 7 cell lines, strains, targets or settings
[19] = Cytotoxicity against human BT549 cells at 10 uM after 48 hrs by SRB assay; type: functional; conditions: BT-549, 48 h, read-out: GI
[20] = Cytotoxicity against human LOXIMVI cells after 48 hrs by SRB assay; type: functional; conditions: LOX IMVI, pooled result: one value given for 9 cell lines, strains, targets or settings
CCRF-CEM [21] = assay: Cytotoxicity against human CCRF-CEM cells after 48 hrs by SRB assay; type: functional
MDA-MB-435 = assay: Cytotoxicity against human MDA-MB-435 cells at 10 uM after 48 hrs by SRB assay; type: functional; conditions: MDA-MB-435, 48 h, read-out: GI
[22] = Cytotoxicity against human NCI-ADR-RES cells at 10 uM after 48 hrs by SRB assay; type: functional; conditions: read-out: GI
HCT-15 = assay: as §1; type: functional
HCC 2998 = assay: as §2; type: functional
[23] = as §3; type: functional; conditions: RPMI-8226, 48 h, read-out: GI
OVCAR-4 = assay: as §4; type: functional
[24] = Cytotoxicity against human PC3 cells at 10 uM after 48 hrs by SRB assay; type: functional; conditions: PC-3, 48 h, read-out: GI
NCI-H23 = assay: Cytotoxicity against human NCI-H23 cells at 10 uM after 48 hrs by SRB assay; type: functional; conditions: NCI-H23, 48 h, read-out: GI
[25] = Cytotoxicity against human UACC62 cells at 10 uM after 48 hrs by SRB assay; type: functional; conditions: UACC-62, 48 h, read-out: GI
[26] = pooled result: one value given for 6 cell lines, strains, targets or settings

COc1ccc(-c2nc(Nc3ccc(F)cc3)nc(Nc3ccc4c(c3)nc(C)n4Cc3ccccc3)n2)cc1
inhibition of growth at 10 µM [1]: 66.6% | inhibition of growth at 10 µM [2]: 51% | CC50 [3]: > 100 µM | growth inhibition (GI) (HL-60(TB)): Active | inhibition of growth at 10 µM [4]: 70.7% | growth inhibition (GI) (CCRF-CEM [5]): Active | inhibition of growth at 10 µM [6]: 25.1% | inhibition of growth at 10 µM [7]: 46.7% | Ka (Calf thymus DNA): 2.96 ×10⁴ /M | inhibition of growth at 10 µM (A549): 68% | inhibition of growth at 10 µM [8]: 54.5% | growth inhibition (GI) (MOLT-4): Active | growth inhibition (GI) (RPMI-8226): Active | inhibition of growth at 10 µM [9]: 61.1% | inhibition of growth at 10 µM [10]: 23.2% | inhibition of growth at 10 µM (SK-MEL-28): 43.5% | GI50 [11]: 3.52 µM | LC50 [11]: 18.2 µM | TGI [11]: 14.4 µM | inhibition of growth at 10 µM [12]: 45.3% | inhibition of growth at 10 µM [13]: 57.4% | CC50 [14]: > 100 µM | inhibition of growth at 10 µM (M14): 61.1% | inhibition of growth at 10 µM [15]: 56.2% | inhibition of growth at 10 µM (SN12C): 51.6% | inhibition of growth at 10 µM (U-251): 60.8% | inhibition of growth at 10 µM [16]: 39.3% | inhibition of growth at 10 µM (NCI-H226): 33.4% | inhibition of growth at 10 µM [17]: 49.5% | GI50 (786-0): 3.4 µM | LC50 (concentration killing 50% of cells) (786-0): > 100 µM | TGI (786-0): 27.7 µM | GI50 [18]: 4.79 µM | LC50 (concentration killing 50% of cells) [18]: > 100 µM | TGI [18]: 40.5 µM | inhibition of growth at 10 µM [19]: 29.3% | GI50 [20]: 4.43 µM | LC50 [20]: > 100 µM | TGI [20]: 31.2 µM | LC50 (CCRF-CEM [21]): > 100 µM | GI50 (CCRF-CEM [21]; [26]): 3.37 µM | TGI (CCRF-CEM [21]; [26]): 67.9 µM | inhibition of growth at 10 µM (MDA-MB-435): 65.9% | inhibition of growth at 10 µM [22]: 73.4%

Cc1nc2ccc(Nc3nc(NCCN)nc(Nc4ccc(F)cc4)n3)cc2n1Cc1ccccc1
growth inhibition (GI) (HCT-15): inactive | inhibition of growth at 10 µM [2]: 11.6% | inhibition of growth at 10 µM [4]: 13.7% | inhibition of growth at 10 µM (CCRF-CEM [5]; read-out: GI): 51.9% | inhibition of growth at 10 µM [6]: 26.1% | inhibition of growth at 10 µM [7]: 20.6% | inhibition of growth at 10 µM (A549): 13.2% | growth inhibition (GI) (HCC 2998): inactive | inhibition of growth at 10 µM [23]: 46.2% | inhibition of growth at 10 µM [9]: 30% | inhibition of growth at 10 µM [10]: 13.2% | inhibition of growth at 10 µM [12]: 8.56% | growth inhibition (GI) (OVCAR-4): inactive | inhibition of growth at 10 µM (M14): 16.4% | inhibition of growth at 10 µM [24]: 26.9% | inhibition of growth at 10 µM [15]: 15.9% | inhibition of growth at 10 µM (NCI-H23): 10.4% | inhibition of growth at 10 µM (SN12C): 24.8% | inhibition of growth at 10 µM (U-251): 46.5% | inhibition of growth at 10 µM [16]: 10.1% | inhibition of growth at 10 µM (NCI-H226): 13.8% | inhibition of growth at 10 µM [17]: 6.85% | inhibition of growth at 10 µM [19]: 17% | inhibition of growth at 10 µM [25]: 9.33% | inhibition of growth at 10 µM (MDA-MB-435): 9.38%

Source: ChEMBL document CHEMBL3745645, “Synthesis, in vitro antitumor activity, dihydrofolate reductase inhibition, DNA intercalation and structure-activity relationship studies of 1,3,5-triazine analogues” (Bioorg Med Chem Lett, 2016)
